The values that follow come from publication PMC6707612, “Cyclic-di-GMP binds to histidine kinase RavS to control RavS-RavR phosphotransfer and regulates the bacterial lifestyle transition between virulence and swimming” (PLoS Pathogens, 2019).

The assay deals with T1, RavR^ΔEAL (Xanthomonas campestris pv. campestris, UniProt Q8P9A7).
T1 sequence (Q8P9A7 with tags, fused parts or gaps): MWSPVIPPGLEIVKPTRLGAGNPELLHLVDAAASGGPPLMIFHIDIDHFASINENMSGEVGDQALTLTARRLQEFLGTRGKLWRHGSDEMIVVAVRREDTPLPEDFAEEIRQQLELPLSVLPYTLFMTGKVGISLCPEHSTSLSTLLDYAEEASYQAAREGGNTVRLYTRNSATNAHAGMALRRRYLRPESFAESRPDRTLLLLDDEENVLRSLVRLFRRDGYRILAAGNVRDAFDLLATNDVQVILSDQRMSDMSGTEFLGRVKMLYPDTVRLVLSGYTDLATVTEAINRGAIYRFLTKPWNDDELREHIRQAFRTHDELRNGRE
The assay is described as follows: microscale thermophoresis (MST) binding. Particulars: 20 nM fluorescein-labelled nucleotide. (MST reads how a fluorescent partner responds to local heating, with and without ligand.)

Consider `Nc1nc2c(ncn2[C@@H]2O[C@@H]3COP(=O)(O)O[C@H]4[C@@H](O)[C@H](n5cnc6c(=O)[nH]c(N)nc65)O[C@@H]4COP(=O)(O)O[C@H]3[C@H]2O)c(=O)[nH]1` [c-di-GMP, Cyclic di-GMP], for which the “dissociation constant (Kd)” value is “did not bind”.
